Key:
P2RY14 = biological target: T1, P2RY14 (Homo sapiens, UniProt Q15391); assay: Membrane filtration binding assay, human P2RY14; design: expressed in transfected cells; settings: human P2RY14 (data not shown)
T1 sequence (Q15391 1-338): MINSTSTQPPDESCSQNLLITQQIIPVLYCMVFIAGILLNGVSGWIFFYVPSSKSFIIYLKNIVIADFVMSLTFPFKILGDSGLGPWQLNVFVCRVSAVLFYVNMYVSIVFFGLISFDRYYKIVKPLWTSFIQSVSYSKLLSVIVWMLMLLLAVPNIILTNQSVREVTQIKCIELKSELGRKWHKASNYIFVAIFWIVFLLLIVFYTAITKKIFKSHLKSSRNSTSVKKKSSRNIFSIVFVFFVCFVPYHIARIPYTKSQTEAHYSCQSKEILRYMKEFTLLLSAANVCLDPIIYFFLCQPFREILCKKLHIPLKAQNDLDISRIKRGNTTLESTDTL
Method: (§1) Membrane preparations were made by N2 cavitation using a Parr unit. […] Cell were Dounce homogenized (size B, 10 strokes) and then added to the cavitation unit. Pressure was adjusted to 800 psi and cells were left under pressure for 30 minutes. Broken cells were released drop by drop and spun at 1000 g for 10 minutes. Supernatent was spun at 160,000 g (rotor type 60 Ti, 40000 rpm for 30 min). Pellet was resuspended in 10 mM HEPES/KOH pH 7.4, 1 mM EDTA in ⅕ the original volume, dounce homogenized (size A, 10 strokes), aliquoted, and frozen at −80° C.
Binding assays were performed in 10 mM Hepes pH 7.4 (KOH), 5 mM MnCl2, 5 mM MgCl2 buffer. Membranes (10 μg/well for human P2RY14 and 30 μg/well for simian P2RY14) were incubated with 10 nM [5.6-^3H] Uridine 5′-triphosphate (UTP), ammonium salt from Amersham Biosciences (# TRK412) in presence of compounds diluted in DMSO (2% final in assay), in a total volume of 100 μl. 50 minutes (human P2RY14) or 60 minutes (simian) P2RY14) incubations were performed at room temperature with shaking. […] To examine the stability of [^3H]-UTP in the membrane filtration binding assay, 100 ul aliquots of the reaction mixture were extracted at 2, 10, 20, 40, 60 and 90 minutes with 100 uL of cold 80 mM EDTA solution (pH 8) and 200 uL of cold Acetonitrile. After mixing, proteins were precipitated by centrifugation at 13000 rpm for 10 minutes at 4° C. […]

[1] = HPLC analysis of [3H]-UTP stability in the P2RY14 membrane filtration binding assay; settings: 60 minute incubation
Method: Binding assays were performed in 10 mM Hepes pH 7.4 (KOH), 5 mM MnCl2, 5 mM MgCl2 buffer. Membranes (10 μg/well for human P2RY14 and 30 μg/well for simian P2RY14) were incubated with 10 nM [5.6-^3H] Uridine 5′-triphosphate (UTP), ammonium salt from Amersham Biosciences (# TRK412) in presence of compounds diluted in DMSO (2% final in assay), in a total volume of 100 μl. 50 minutes (human P2RY14) or 60 minutes (simian) P2RY14) incubations were performed at room temperature with shaking. […] Incubation mixtures were filtered on GF/C Packard filter membranes (#6065174) and washed with cold 10 mM Hepes/KOH buffer at pH 7.4 (2×3.7 ml) using a Tomtek Mach III harvester. GF/C filters were subsequently dried at 55° C. in a vacuum oven for 1 hour before addition of 25 μl/well Ultima Gold F scintillation fluid from Packard (#6013179) and counted in a Wallac Microbeta counter normalized for ^3H (2 min/well). Counts (ccpms) generated by non specific binding were subtracted from total counts, to give specific binding which was expressed as % of total binding and K is were calculated by data analyzer using the inflection point of the dose dependant sigmoidal curve generated for each compound. Kds for [^3H]-UTP/[^3H]-UDP in the human and simian assays were determined by Scatchard analysis and are as follow: 10.03 nM for human P2RY14 and 10.25 nM for simian P2RY14. […]

simian P2RY14 = assay: Membrane filtration binding assay, simian P2RY14; design: species or system chimpanzee
Method: as §1
Binding assays were performed in 10 mM Hepes pH 7.4 (KOH), 5 mM MnCl2, 5 mM MgCl2 buffer. Membranes (10 μg/well for human P2RY14 and 30 μg/well for simian P2RY14) were incubated with 10 nM [5.6-^3H] Uridine 5′-triphosphate (UTP), ammonium salt from Amersham Biosciences (# TRK412) in presence of compounds diluted in DMSO (2% final in assay), in a total volume of 100 μl. 50 minutes (human P2RY14) or 60 minutes (simian) P2RY14) incubations were performed at room temperature with shaking. […] To examine the stability of [^3H]-UTP in the membrane filtration binding assay, 100 ul aliquots of the reaction mixture were extracted at 2, 10, 20, 40, 60 and 90 minutes with 100 uL of cold 80 mM EDTA solution (pH 8) and 200 uL of cold Acetonitrile. After mixing, proteins were precipitated by centrifugation at 13000 rpm for 10 minutes at 4° C. […] After 0.5 min at 10:90 50 mM KH2PO4/750 mM KH2PO4, a gradient was applied in order to increase to 100% 750 mM KH2PO4 at 5 min, after which this composition was maintained for an additional 3 min. Samples were kept at 4° C. prior to HPLC analysis

[2] = system: HEK cells not expressing P2RY14; assay: FLIPR Ca2+ release in HEK cells not expressing P2RY14 (specificity); type: cell-based
[3] = system: simian (chimpanzee) P2RY14; assay: CellKey System live cell functional assay, simian P2RY14; type: cell-based; settings: HEK cells expressing simian P2RY14 and Gqi5
Method: (§2) The Cellkey System™ (MDS Sciex), a novel, live cell, label-free, real-time technology, was used to examine P2RY14 activation following agonist stimulation. The CellKey System™ is based on cellular dielectric spectroscopy (CDS) and monitors changes in impedance of the applied electrical current through the cell monolayer upon receptor activation.
(§3) On the following day, growth medium was removed from the cell monolayer and replaced with 135 μl of HBSS pH 7.4 containing 20 mM Hepes for a 30 minutes pre-incubation period at room temperature. Baseline measurements were made for 5 minutes at 28° C. prior to ligand addition. For agonist assays, 15 μl of 10× agonist diluted in HBSS pH 7.4 containing 20 mM HEPES was added to the cell monolayer simultaneously using the 96 multichannel head from the CellKey™ System. Cellular response was monitored for 10 minutes to assess cellular response after ligand addition.

mouse P2RY14 [4] = biological target: T2, mouse P2RY14 (Mus musculus, UniProt Q9ESG6); assay: CellKey System live cell functional assay, mouse P2RY14; type: cell-based; settings: HEK cells expressing mouse P2RY14 and Gqi5
T2 construct: expressed in transfected cells
T2 sequence (Q9ESG6 1-338): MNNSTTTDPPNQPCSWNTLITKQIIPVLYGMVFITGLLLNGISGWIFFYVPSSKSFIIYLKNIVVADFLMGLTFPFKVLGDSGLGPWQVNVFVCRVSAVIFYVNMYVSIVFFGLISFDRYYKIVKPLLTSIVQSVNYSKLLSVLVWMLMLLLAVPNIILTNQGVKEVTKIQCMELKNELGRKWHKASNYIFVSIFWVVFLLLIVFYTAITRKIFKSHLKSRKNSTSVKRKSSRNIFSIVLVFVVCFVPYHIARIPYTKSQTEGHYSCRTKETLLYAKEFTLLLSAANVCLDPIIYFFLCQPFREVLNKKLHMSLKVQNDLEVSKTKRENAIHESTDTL
Method: as §2, §3

mouse P2RY14 [5] = biological target: T2, mouse P2RY14; assay: FLIPR whole cell Ca2+ agonist assay, HEK cells expressing mouse P2RY14 and Gqi5; type: cell-based
Description: (§4) Stable HEK clonal cell lines expressing P2RY14 and the chimeric G protein Gqi5 were constructed. The chimeric Gqi5 forces the coupling of P2RY14 through the Gq (calcium) pathway and allows for monitoring of calcium signaling using a calcium binding fluorescent dye and a FLIPR (fluorometric imaging plate reader, MDS Sciex). Vector pCEP4 comprising the chimeric Gqi5 was obtained from Molecular Devices, Sunnyvale, Calif. (Cat. No. RD-PGQI5).
The nucleic acid encoding the mouse P2RY14 was under the control of the CMV promoter.
(§5) Cells were grown in DMEM medium containing 25 mM HEPES, pH 7.4 and 10% FBS, 50 units/ml penicillin/50 μg/ml streptomycin, 2 mM glutamine and 1 mM sodium pyruvate at 37° C. in humidified air containing 5% CO2. Two days post-transfection, cells were grown under selection in the DMEM medium as indicated above and supplemented with 200 μg/ml Hygromycin B and 250 μg/ml geneticin.
(§6) Cells were incubated overnight at 37° C. and 5% CO2 to form a monolayer. On the following day, 30 μl of fluorescent no-wash dye was added to the cell monolayer and the plate was incubated for 60 minutes at 37° C., 5% CO2.
(§7) For agonist assays, 6.12 μl of 10× agonist solution was added to the cell/dye incubation and Ca^2+ signaling was monitored by FLIPR. For antagonist assays, 250 nl of compound in 100% DMSO was added to cell/dye mixture; following a 20 minute incubation at room temperature, 6.12 μl of 10× agonist solution at EC80 in HBSS containing 20 mM Hepes was added to cells and Ca^2+ signaling was monitored by FLIPR. Quantitation of the % stimulation or inhibition of Ca^2+ signaling by agonist or antagonist, respectively, was calculated using the Max-Min fluorescent signal detected.

[6] = system: simian (chimpanzee) P2RY14; assay: FLIPR whole cell Ca2+ agonist assay, HEK cells expressing simian (chimpanzee) P2RY14 and Gqi5; type: cell-based
Description: as §4
The simian (chimpanzee) P2RY14 nucleic acid fragment was synthesized based upon the Ensembl Gene ID ENSPTRG00000030093 by Bio S & T, Montreal, Quebec, Canada, to be flanked with KpnI and NotI restriction enzyme sites. […] The DNA fragment was digested with KpnI and NotI and then cloned into a pcDEF3 vector previously digested with KpnI and NotI to place the DNA fragment in the proper orientation downstream of the human EF-1a promoter. The nucleic acid encoding the simian P2RY14 was under the control of the human EF-1a promoter.
as §5, §6, §7

rat P2YR14 receptor = biological target: T3, rat P2YR14 receptor (Rattus norvegicus, UniProt O35881); settings: Fricks et al. 2007; cited from earlier work
T3 sequence (O35881 1-305): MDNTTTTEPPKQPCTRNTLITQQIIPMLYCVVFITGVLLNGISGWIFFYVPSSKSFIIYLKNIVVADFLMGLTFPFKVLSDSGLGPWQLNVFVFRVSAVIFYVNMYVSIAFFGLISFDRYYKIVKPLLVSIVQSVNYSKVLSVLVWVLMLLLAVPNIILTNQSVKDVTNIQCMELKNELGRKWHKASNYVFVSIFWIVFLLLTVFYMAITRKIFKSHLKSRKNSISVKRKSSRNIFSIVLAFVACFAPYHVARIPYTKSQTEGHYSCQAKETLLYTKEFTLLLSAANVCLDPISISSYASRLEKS

| SMILES | specific binding window as radioligand (P2RY14) | stability of radioligand in membrane filtration binding assay [1] | time of conversion to [3H]-UDP [1] [min] | specific binding window as radioligand (simian P2RY14; HEK cells expressing simian P2RY14, membrane filtration) | Ca2+ release in cells not expressing P2RY14 [2] | P2RY14 signaling (impedance, CellKey) [3] | P2RY14 signaling (impedance, CellKey) (mouse P2RY14 [4]) | activation of P2RY14 (Ca2+ signaling) (mouse P2RY14 [5]) | competition for [3H]-UTP/[3H]-UDP binding (simian P2RY14; simian P2RY14 membranes) | activation of P2RY14 (Ca2+ signaling) [6] | mode of action at receptor (rat P2YR14 receptor) |
| --- | --- | --- | --- | --- | --- | --- | --- | --- | --- | --- | --- |
| N.N.N.N.[3H]c1c([3H])n([C@@H]2O[C@H](COP(=O)(O)OP(=O)(O)OP(=O)(O)O)[C@@H](O)[C@H]2O)c(=O)[nH]c1=O [[^3H]-UTP, [5.6-^3H] Uridine 5′-triphosphate (UTP), ammonium salt] | a specific binding window | converted predominantly to [^3H]-UDP | ≤ 10 | a specific binding window |  |  |  |  |  |  |  |
| O=c1ccn([C@@H]2O[C@H](COP(=O)(O)OP(=O)(O)O)[C@@H](O)[C@H]2O)c(=O)[nH]1 [UDP] |  |  |  |  | do not stimulate Ca^2+ release | mediated signaling | mediated signaling | activated | able to successfully compete | activated | full agonist |
